Measured values as given in ChEMBL document CHEMBL4739716, “Gpr139 receptor modulators” (2020).

Tests used:
[1] = target: T1, Probable G-protein coupled receptor 139 (Homo sapiens, UniProt Q6DWJ6); experiment: Agonist activity at human GPR139 expressed in CHO-K1 cells assessed as induction of beta-arrestin 2 recruitment incubated for 90 mins by PathHunter assay; format: cell-based
T1 sequence (Q6DWJ6 whole entry): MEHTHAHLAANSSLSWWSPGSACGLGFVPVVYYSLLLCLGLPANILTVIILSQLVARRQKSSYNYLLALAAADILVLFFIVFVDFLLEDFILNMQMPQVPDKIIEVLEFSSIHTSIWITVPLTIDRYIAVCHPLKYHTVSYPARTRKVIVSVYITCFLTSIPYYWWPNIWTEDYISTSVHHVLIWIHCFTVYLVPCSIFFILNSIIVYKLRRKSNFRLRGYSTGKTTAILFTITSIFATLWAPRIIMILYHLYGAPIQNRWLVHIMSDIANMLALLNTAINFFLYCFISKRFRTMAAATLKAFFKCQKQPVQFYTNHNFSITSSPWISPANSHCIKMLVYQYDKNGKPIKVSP

[2] = target: T2, Probable G-protein coupled receptor 139 (Rattus norvegicus) (UniProt P0C0W8); experiment: Agonist activity at rat GPR139 expressed in CHO-K1 cells assessed as increase in calcium flux by calcium 5 dye based FLIPR assay relative to JNJ63533054; format: cell-based
T2 sequence (whole entry): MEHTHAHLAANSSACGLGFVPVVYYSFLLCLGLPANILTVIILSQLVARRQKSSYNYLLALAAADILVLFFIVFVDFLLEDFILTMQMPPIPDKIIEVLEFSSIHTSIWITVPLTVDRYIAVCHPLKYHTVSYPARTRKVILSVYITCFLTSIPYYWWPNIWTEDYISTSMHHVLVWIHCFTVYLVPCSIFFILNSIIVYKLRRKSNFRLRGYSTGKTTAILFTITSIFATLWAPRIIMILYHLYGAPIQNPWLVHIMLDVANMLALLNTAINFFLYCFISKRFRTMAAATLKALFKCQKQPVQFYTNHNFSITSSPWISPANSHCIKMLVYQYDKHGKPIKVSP

[3] = target: T3, Probable G-protein coupled receptor 139 (Homo sapiens) (UniProt Q6DWJ6); experiment: Agonist activity at human GPR139 expressed in CHO-K1 cells assessed as increase in calcium flux by calcium 5 dye based FLIPR assay relative to JNJ63533054; format: functional, cell-based
T3 sequence (whole entry): T1 sequence (Q6DWJ6 whole entry)

[4] = target: T4, Probable G-protein coupled receptor 139 (Rattus norvegicus, UniProt P0C0W8); experiment: Agonist activity at rat GPR139 expressed in CHO-K1 cells assessed as increase in calcium flux by calcium 5 dye based FLIPR assay; format: cell-based
T4 sequence (P0C0W8 whole entry): T2 sequence (whole entry)

[5] = target: T3, Probable G-protein coupled receptor 139 (Homo sapiens); experiment: Agonist activity at human GPR139 expressed in CHO-K1 cells assessed as induction of beta-arrestin 2 recruitment incubated for 90 mins by PathHunter assay relative to JNJ63533054; format: cell-based
[6] = target: T1, Probable G-protein coupled receptor 139; experiment: Agonist activity at human GPR139 expressed in CHO-K1 cells assessed as increase in calcium flux by calcium 5 dye based FLIPR assay; format: functional, cell-based

Structure (SMILES) | EC50 [1] [nM] | Emax ([2]; filed as agonist) [%] | Emax ([3]; filed as agonist) [%] | EC50 ([4]; cho-k1) [nM] | Emax [5] [%] | EC50 ([6]; cho-k1) [nM] | EC50 ([1]; cho-k1) [nM] | Emax ([5]; filed as agonist) [%] | EC50 [6] [nM] | EC50 [4] [nM] | Emax [2] [%] | Emax [3] [%]
CC[C@H](NC(=O)Cn1nc2cccnn2c1=O)c1ccc(Cl)c(F)c1 | ≥ 100 | > 80 | > 80 | 1 | 25 | 1 |  |  |  |  |  | 
Cc1ccc([C@H](C)NC(=O)Cn2nc3c(C)ccnn3c2=O)cc1F |  | > 80 | > 80 | 1 |  |  | 10 | > 80 | < 1 |  |  | 
COc1ccn2c(=O)n(CC(=O)N[C@@H](C)c3ccc(Cl)c(F)c3)nc2c1 |  | 50 | > 80 |  |  |  | 1 | > 80 | < 1 | < 1 |  | 
C[C@H](NC(=O)Cn1nc2cc(Cl)ccn2c1=O)c1ccc(OC(F)(F)F)cc1 | < 1 | 50 | > 80 |  |  |  |  | 50 | < 1 | < 1 |  | 
C[C@H](NC(=O)Cn1nc2ccc(F)cn2c1=O)c1ccc(C(F)(F)F)cc1 | < 1 | 50 | > 80 | 1 |  | 1 |  | 50 |  |  |  | 
Cc1ccc([C@H](C)NC(=O)Cn2nc3c(F)cccn3c2=O)cc1 | ≥ 100 | 50 | > 80 | 1 |  | 1 |  | 50 |  |  |  | 
C[C@H](NC(=O)Cn1nc2ccc(Cl)nn2c1=O)c1ccc(OC(F)(F)F)cc1 |  |  | 50 | 1 | 25 | 1 | 10 |  |  |  | 25 | 
C[C@H](NC(=O)Cn1nc2c(N3CCC34CN(C)C4)cccn2c1=O)c1ccc(Cl)c(F)c1 |  | > 80 | 50 | 10 | 25 | 10 | 10 |  |  |  |  | 
CC(C)[C@H](NC(=O)Cn1nc2cccnn2c1=O)c1ccc(Cl)c(F)c1 | ≥ 100 | 50 | 50 | 1 | < 25 | 1 |  |  |  |  |  | 
C[C@H](NC(=O)Cn1nc2c(N3CCOCC3)cccn2c1=O)c1ccc(Cl)c(F)c1 |  | 50 | > 80 |  |  |  | 10 | 50 | < 1 | < 1 |  | 
C[C@H](NC(=O)Cn1nc2ncc(F)cn2c1=O)c1ccc(OC(F)(F)F)cc1 | ≥ 100 |  | > 80 |  | 25 | 1 |  |  |  | ≥ 100 | 25 | 
Cc1ccnc2nn(CC(=O)N[C@@H](C)c3ccc(Cl)c(F)c3)c(=O)n12 |  | 50 | > 80 | 10 |  |  | 1 | 50 | < 1 |  |  | 
Cc1cc(Cl)ccc1[C@H](C)NC(=O)Cn1nc2cccnn2c1=O | ≥ 100 | 50 | > 80 | 1 |  | 1 |  | 50 |  |  |  | 
C[C@H](NC(=O)Cn1nc2ccccn2c1=O)c1ccc(Cl)c(Cl)c1 |  | > 80 | > 80 | 1 |  |  | 1 | > 80 | < 1 |  |  | 
C[C@H](NC(=O)Cn1nc2ccc(C3CC3)nn2c1=O)c1ccc(OC(F)(F)F)cc1 |  |  | > 80 |  | 25 | 1 | 10 |  |  | ≥ 100 | < 25 | 
C[C@H](NC(=O)Cn1nc2cc(C#N)ccn2c1=O)c1ccc(Cl)c(F)c1 |  | 50 | > 80 | 1 |  | 1 | 1 | 50 |  |  |  | 
COc1cnc2nn(CC(=O)N[C@@H](C)c3ccc(OC(F)(F)F)cc3)c(=O)n2c1 |  |  | > 80 |  | 25 | 1 | 1 |  |  | ≥ 100 | < 25 | 
COc1ccc2nn(CC(=O)N[C@@H](C)c3ccc(C)cc3)c(=O)n2c1 | < 1 |  | > 80 |  | 25 | 1 |  |  |  | < 1 | 25 | 
Cc1cc([C@H](C)NC(=O)Cn2nc3cccnn3c2=O)ccc1Cl | ≥ 100 | > 80 | > 80 | 1 |  | 1 |  | 50 |  |  |  | 
C[C@H](NC(=O)[C@@H](C)n1nc2ncccn2c1=O)c1ccc(Cl)c(F)c1 |  | 50 | > 80 | 1 |  | 1 | 10 | 50 |  |  |  | 
Cc1cnc2nn(CC(=O)N[C@@H](C)c3ccc(OC(F)(F)F)cc3)c(=O)n2c1 | ≥ 100 |  | 50 |  | 25 | 1 |  |  |  | ≥ 100 | 25 | 
C[C@H](NC(=O)Cn1nc2cccnn2c1=O)c1ccc(Cl)c(F)c1 |  | > 80 | > 80 | 1 |  | 1 | 10 | 50 |  |  |  | 
Cc1cnn2c(=O)n(CC(=O)N[C@@H](C)c3ccc(Cl)c(F)c3)nc2c1 | ≥ 100 | > 80 | > 80 | 1 |  | 1 |  | 50 |  |  |  | 
COc1cccc2nn(CC(=O)N[C@@H](C)c3ccc(Cl)cc3)c(=O)n12 |  | 50 | 50 | 1 |  |  | 1 | 50 | < 1 |  |  | 
C[C@H](NC(=O)Cn1nc2c(C(F)F)nccn2c1=O)c1ccc(OC(F)(F)F)cc1 | < 1 | 50 | > 80 |  | 25 | 1 |  |  |  | ≥ 100 |  | 
C[C@H](NC(=O)Cn1nc2ccccn2c1=O)c1ccc(-c2ccccc2)cc1 | ≥ 100 |  |  |  | < 25 | 10 |  |  |  |  |  | 25
O=C(Cn1nc2cccnn2c1=O)N[C@H](c1ccc(Cl)c(F)c1)C1CC1 | ≥ 100 |  | 50 |  | < 25 | 1 |  |  |  |  |  | 
C[C@H](NC(=O)Cn1nc2ccc(C3CC3)nn2c1=O)c1ccc(Cl)c(F)c1 |  |  | > 80 |  |  |  | 1 | 50 | < 1 |  |  | 
